# Laboratory results taken from PubChem BioAssay (NCI).
# Values joined by “and” are separate entries in the source; they are usually repeats but may differ in a detail not shown here. Equal entries are not always repeated.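 Compound exposure: 48 hours, 5 concentrations, 96-well plates. GI50 is the concentration that inhibits growth by half. TGI: concentration producing complete growth inhibition.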
# Key:
# Test in all cases: NCI-60 cell line screen, 48 h
# A549 NSCLC = tested on: A549 NSCLC
# CCRF-CEM leukemia = tested on: CCRF-CEM leukemia
# HCC-2998 colon = tested on: HCC-2998 colon
# KM12 colon = tested on: KM12 colon
# NCI-H522 lung = tested on: NCI-H522 lung
# OVCAR-5 ovarian = tested on: OVCAR-5 ovarian
# SK-MEL-28 melanoma = tested on: SK-MEL-28 melanoma
# SNB-75 CNS = tested on: SNB-75 CNS
# UACC-62 melanoma = tested on: UACC-62 melanoma
# UO-31 renal = tested on: UO-31 renal
Compound,GI50 (A549 NSCLC),TGI (A549 NSCLC),GI50 (CCRF-CEM leukemia),TGI (CCRF-CEM leukemia),GI50 (HCC-2998 colon),TGI (HCC-2998 colon),GI50 (KM12 colon),TGI (KM12 colon),GI50 (NCI-H522 lung),TGI (NCI-H522 lung),GI50 (OVCAR-5 ovarian),TGI (OVCAR-5 ovarian),GI50 (SK-MEL-28 melanoma),TGI (SK-MEL-28 melanoma),GI50 (SNB-75 CNS),TGI (SNB-75 CNS),GI50 (UACC-62 melanoma),TGI (UACC-62 melanoma),GI50 (UO-31 renal),TGI (UO-31 renal)
Cc1cc(I)cc(CN(C)CCCN2CCCC2)c1O,29.9 µM,> 100 µM,3.46 µM,38.1 µM,19.1 µM,35.6 µM,20.3 µM,46 µM,20.7 µM,45.9 µM,27.8 µM,> 94.7 µM,15.3 µM,29.9 µM,15.3 µM,35.6 µM,5.47 µM,13.1 µM,20 µM,> 60.9 µM
O=C1CCCCN1CCCCC#Cc1cccc(C#Cc2cccnc2)c1,18.4 µM,60.6 µM,30.9 µM,> 100 µM,6.52 µM,23.1 µM,20.4 µM,> 100 µM,19 µM,63.7 µM,17.7 µM,41.7 µM,38.7 µM,> 100 µM,4.05 µM,20.4 µM,4.82 µM,16.9 µM,5.97 µM,23 µM
Cc1nc(C(N)=S)sc1C(=O)/C=C/c1c(O)ccc2ccccc12,,> 100 µM,,54.5 µM,,> 100 µM,,> 93.1 µM,,> 63 µM,,> 100 µM,,> 100 µM,,> 100 µM,,> 87.9 µM,,> 100 µM
COC(=O)C(/C(=N\O)C(=O)Nc1cccc(Cl)c1C)c1cnc2ccccc2n1 (stereo not given),,> 100 µM,,> 100 µM,,> 100 µM,,> 100 µM,,> 100 µM,,> 100 µM,,> 100 µM,,> 100 µM,,> 100 µM,,> 100 µM
O=S(=O)(CCCl)c1ccc(Cl)cc1,13 µM,45.6 µM,2.95 µM,20.9 µM,11.5 µM,25.6 µM,12.9 µM,31.4 µM,1.41 µM,3.01 µM,3.56 µM,14.2 µM,2.38 µM,10.8 µM,2.4 µM,29.8 µM,5.63 µM,19.4 µM,2.45 µM,8.16 µM
O=c1c(F)cn(Cc2ccccc2CCl)c(=O)n1Cc1ccccc1CCl,1.83 µM,4.29 µM,1.04 µM,3.5 µM,2.09 µM,4.47 µM,1.74 µM,3.68 µM,1.45 µM,3.01 µM,5.07 µM,11 µM,1.4 µM,3.32 µM,1.97 µM,6.36 µM,1.33 µM,2.94 µM,1.99 µM,5.3 µM
CCC1=CC2CN(C1)Cc1c([nH]c3ccccc13)[C@@](C(=O)OC)(c1cc3c(cc1OC)N(C)[C@H]1[C@@](O)(C(=O)OC)[C@H](OC(C)=O)[C@]4(CC)C=CCN5CC[C@]31[C@@H]54)C2 (stereo not given in full),0.0114 µM and 0.0208 µM,50 µM and > 100 µM,0.00879 µM,20.2 µM,0.0108 µM and 0.0162 µM,,,0.372 µM,< 0.005 µM,1.3 µM,0.0325 µM and 0.0785 µM,50 µM and > 100 µM,0.0221 µM,> 100 µM,,17.9 µM,0.00589 µM,50 µM and > 100 µM,5.45 µM and 1.06 µM,26.6 µM and 76.9 µM
O=S(=O)(NCCCNc1nccc(-c2c(-c3ccc(F)cc3)nc3sccn23)n1)c1ccc2ccccc2c1,4.43 µM,> 100 µM,3.13 µM,> 100 µM,3.37 µM,9.61 µM,2.86 µM,9.96 µM,5.66 µM,> 100 µM,> 100 µM,> 100 µM,> 100 µM,> 100 µM,5.22 µM,> 100 µM,4.6 µM,> 100 µM,3.58 µM,> 100 µM
O=c1oc2ccc(I)cc2c(=O)n1-c1ccc(Cl)cc1F,2.87 µM,> 100 µM,2.97 µM,46.6 µM,3.18 µM,12.9 µM,2.22 µM,5.39 µM,0.8 µM,9.72 µM,3.96 µM,74.1 µM,0.416 µM,2.98 µM,0.5 µM,2.97 µM,0.419 µM,2.28 µM,0.301 µM,3.24 µM
COc1ccc(/C(=N\NC(=S)NN)C(c2ccc(OC)cc2)C2C(=O)Oc3ccccc32)cc1 (stereo not given),> 100 µM,> 100 µM,,> 100 µM,,> 100 µM,> 100 µM,> 100 µM,,> 100 µM,> 100 µM,> 100 µM,,> 100 µM,> 100 µM,> 100 µM,> 100 µM,> 100 µM,> 100 µM,> 100 µM
COc1ccc2c(c1)/C(=C/c1cc(OC)c(OC)c(OC)c1)C(=O)N2,0.603 µM,> 100 µM,0.253 µM,,0.586 µM,16 µM,0.102 µM,> 39.9 µM,0.25 µM,,1.9 µM,> 100 µM,> 100 µM,> 100 µM,0.483 µM,2.05 µM,0.37 µM,> 100 µM,2.74 µM,> 100 µM
O=C(N/N=C/c1ccccc1O)c1ccccc1,3.9 µM,> 100 µM,0.35 µM,8.3 µM,0.6 µM,8.34 µM,4.1 µM,> 100 µM,2.67 µM,53 µM,2.5 µM,> 100 µM,6.69 µM,> 100 µM,3.5 µM,> 100 µM,1.87 µM,7.16 µM,1.53 µM,11.7 µM
O=c1oc2ccccc2[n+]([O-])c1-c1ccccc1,,> 100 µM,,> 100 µM,,> 100 µM,,> 100 µM,,> 100 µM,,> 100 µM,,> 100 µM,,> 100 µM,,> 100 µM,,> 100 µM
CCCCN(CC)CC(C(C)=O)c1c(O)c2ccccc2oc1=O (stereo not given),,> 100 µM,,> 100 µM,,> 100 µM,,> 100 µM,,> 100 µM,,> 100 µM,,> 100 µM,,> 100 µM,,> 100 µM,,> 100 µM
CCCCn1c(-c2ccc(C(=O)O/N=C(\N)c3ccc4c(c3)OCO4)cc2)nc(-c2ccccc2)c1-c1ccccc1,1.92 µM,5.22 µM,1.05 µM,3.4 µM,3.13 µM,22.5 µM,4.72 µM,> 100 µM,2.04 µM,4.89 µM,4.77 µM,> 100 µM,5.69 µM,> 100 µM,1.53 µM,3.88 µM,2.72 µM,8.93 µM,0.229 µM,0.562 µM
Cc1ccccc1C(=O)N1CCN(C(=O)c2ccccc2C)CC1,,> 100 µM,,> 100 µM,,> 100 µM,,> 100 µM,,> 100 µM,,> 100 µM,,> 100 µM,,> 100 µM,,> 100 µM,,> 100 µM
N#Cc1ccc(NC(=O)C(CC(=O)OCc2ccccc2)NC(=O)OCc2ccccc2)cc1 (stereo not given),> 100 µM,> 100 µM,> 100 µM,> 100 µM,,> 100 µM,> 100 µM,> 100 µM,> 100 µM,> 100 µM,> 100 µM,> 100 µM,> 100 µM,> 100 µM,> 100 µM,> 100 µM,> 100 µM,> 100 µM,> 100 µM,> 100 µM
COc1ccc(CN2CCC/C=C/CC(Cl)(Cl)C2=O)cc1,,> 100 µM,,> 100 µM,,> 100 µM,,> 100 µM,,59.4 µM,,> 100 µM,,> 100 µM,,64.8 µM,,> 100 µM,,57.4 µM
C=C1C(=O)O[C@H]2[C@H]1CC/C(C=Nc1c(N)cc(C(F)(F)F)cc1Br)=C\CC[C@@]1(C)O[C@@H]21,2.03 µM,5.11 µM,0.33 µM,11.2 µM,1.83 µM,3.52 µM,1.8 µM,3.97 µM,1.37 µM,2.96 µM,1.83 µM,3.75 µM,1.88 µM,3.66 µM,1.27 µM,3.67 µM,1.41 µM,2.96 µM,1.26 µM,2.52 µM
Nc1ccc(/C=C/C(=O)NCc2cc3cc(-c4ccc(C(=O)N5CCC(F)(F)CC5)cc4)cc(-c4ccc(F)cc4)c3o2)cn1,> 100 µM,> 100 µM,0.083 µM,> 100 µM,10.5 µM,> 100 µM,1.21 µM,> 100 µM,0.773 µM,> 100 µM,8.43 µM,> 100 µM,> 100 µM,> 100 µM,> 100 µM,> 100 µM,> 100 µM,> 100 µM,> 47.6 µM,> 100 µM
COC(=O)C1(C)Cc2cc(OC(C)=O)c(OC(C)=O)cc2N1 (stereo not given),11.6 µM,29.4 µM,3.42 µM,> 46 µM,17.8 µM,33 µM,20.2 µM,51.6 µM,0.633 µM,1.8 µM,20 µM,47 µM,13.8 µM,32.3 µM,26.3 µM,> 96.7 µM,4.09 µM,17.5 µM,3.59 µM,21.9 µM
CC(=O)N1CCC2(c3ccccc3N(C(C)=O)C2c2ccc(O)cc2)C1C(=O)O (stereo not given),,> 100 µM,,> 100 µM,,> 100 µM,,> 100 µM,,> 100 µM,,> 100 µM,,> 100 µM,,> 100 µM,,> 100 µM,,> 100 µM
Cc1cc(N(CCC#N)CCC#N)ccc1/C=C(\NC(=O)/C=C/c1ccccc1)C(=O)NN,,> 100 µM,,> 100 µM,,> 100 µM,,> 100 µM,,> 100 µM,,> 100 µM,,> 100 µM,,> 62.9 µM,,> 100 µM,,> 100 µM
CNC(=O)c1nn(C)c2c1C(C)(C)Cc1cnc(Nc3ccc(N4CCN(C)CC4)cc3)nc1-2,0.682 µM,> 10 µM,1.58 µM,> 10 µM,2.47 µM,> 10 µM,0.347 µM,> 10 µM,0.327 µM,> 5.54 µM,0.504 µM,> 9.01 µM,2.32 µM,> 10 µM,0.304 µM,2.29 µM,0.486 µM,> 10 µM,0.169 µM,2.39 µM
O=[N+]([O-])c1ccc(-c2ccc(-c3csc(Nc4ccccc4)n3)o2)cc1,,> 100 µM,,16.9 µM,,56.5 µM,,38.3 µM,,32 µM,,31.6 µM,,32.2 µM,,> 56.8 µM,,37.2 µM,,39 µM
CCNC(=O)c1noc(-c2cc(C(C)C)c(O)cc2O)c1-c1ccc(CN2CCOCC2)cc1,0.0221 µM,22.7 µM,0.0321 µM,> 75.4 µM,0.0267 µM,1.05 µM,0.0203 µM,0.0741 µM,0.0333 µM,13.6 µM,0.0631 µM,29.3 µM,0.055 µM,22.7 µM,4.51 µM,55.8 µM,0.0333 µM,4.92 µM,0.0457 µM,> 100 µM
CCOC(=O)/C(C#N)=C\C=C(/Cl)c1ccc(Cl)cc1,30.4 µM,90.4 µM,0.484 µM,> 100 µM,16.1 µM,31.1 µM,20 µM,45.8 µM,14 µM,39.9 µM,29.7 µM,59.4 µM,15.5 µM,32.3 µM,20.5 µM,39.9 µM,18.7 µM,38.9 µM,18 µM,35.4 µM
CSC(=S)N/N=C/c1nccc2ccccc12,,9.87 µM,,8.8 µM,,11.3 µM,,15.6 µM,,1.63 µM,,8.96 µM,,> 79.8 µM,,14 µM,,6.08 µM,,9.4 µM
Cc1ccc(NC(=O)c2cc(S(=O)(=O)N3C(=O)NC(=O)NS3(=O)=O)c(S)cc2Cl)cc1,35.1 µM,> 100 µM,15.9 µM,40.3 µM,28.5 µM,60.5 µM,22.2 µM,52.2 µM,36.1 µM,> 100 µM,56.5 µM,> 100 µM,34.4 µM,> 100 µM,91.6 µM,> 100 µM,15.7 µM,36 µM,27.8 µM,> 100 µM
